According to paper PMC7769078 (International Journal of Nanomedicine, 2020):

How the values were obtained:
zebrafish larvae (7 dpf) = experiment: C6-NPs endocytosis in larval zebrafish with endocytic inhibitors; assay type: in vivo, zebrafish (Danio rerio); settings: 7 dpf larvae, 30 min inhibitor, C6-NPs 100 ng/mL 30 min
SH-SY5Y cells = experiment: Cytoprotection against MPP+-induced cell death in SH-SY5Y cells; assay type: cell-based, human; settings: for viability of MPP+-treated SH-SY5Y cells: 2 h pre-treatment, then 2 mM MPP+ 36 h

Question: How did the “inhibitory effect on C6-NPs internalization in zebrafish larvae” value (zebrafish larvae (7 dpf)) turn out when `CN(C)CCCN1c2ccccc2Sc2ccc(Cl)cc21` [CPZ, chlorpromazine] was run?
Answer: Its value is “most profound inhibitory effect”.

Question: With `C[n+]1ccc(-c2ccccc2)cc1` [MPP^+, 1-methyl-4-phenylpyridinium ion] as the compound, how does the “cell death induced in SH-SY5Y cells” value (SH-SY5Y cells; 2 mM MPP+, 36 h) read?
Answer: The value was 47.6%.

Question: With Ginkgolide B [GB] as the compound, how does the “viability of MPP+-treated SH-SY5Y cells” value (SH-SY5Y cells; 1 μM) read?
Answer: The value was 60%.

Question: And the “viability of MPP+-treated SH-SY5Y cells” value (SH-SY5Y cells; 5 μM)?
Answer: Its value is 65%.

Question: And the “viability of MPP+-treated SH-SY5Y cells” value (SH-SY5Y cells; 10 μM)?
Answer: The value was 71%.

Question: What about the “viability of MPP+-treated SH-SY5Y cells” value (SH-SY5Y cells; 20 μM) of the same compound?
Answer: The value was 78%.

Question: methyl-β-cyclodextrin [MβCD] was tested. Which “inhibitory effect on C6-NPs internalization in zebrafish larvae” value (zebrafish larvae (7 dpf)) did it give?
Answer: The value was “most profound inhibitory effect”.
